Results taken from US20110015226A1, “Treatment of Energy Utilization Disease” (SUMMIT CORPORATION PLC, priority 2008, published 2011).

Experiments:
[1] = test system: β-D-mannosidase Cellullomonas fimi; assay: Glycosidase inhibition: β-D-mannosidase Cellullomonas fimi; assay type: biochemical; details: compounds tested at 0.8 mM
Experimental: All enzymes and para-nitrophenyl substrates were purchased from Sigma, with the exception of beta-mannosidase which came from Megazyme. Enzymes were assayed at 27° C. in 0.1M citric acid/0.2M disodium hydrogen phosphate buffers at the optimum pH for the enzyme. The incubation mixture consisted of 10 μl enzyme solution, 10 μl of 1 mg/ml aqueous solution of extract and 50 μl of the appropriate 5 mM para-nitrophenyl substrate made up in buffer at the optimum pH for the enzyme. The reactions were stopped by addition of 70 μl 0.4M glycine (pH 10.4) during the exponential phase of the reaction, which had been determined at the beginning using uninhibited assays in which water replaced inhibitor. Final absorbances were read at 405 nm using a Versamax microplate reader (Molecular Devices). Assays were carried out in triplicate, and the values given are means of the three replicates per assay. (See Watson, A. A., Nash, R. J., Wormald, M. R., Harvey, D. J., Dealler, S., Lees, E., Asano, N., Kizu, H., Kato, A., Griffiths, R. C., Cairns, A. J. and Fleet, G. W. J. (1997). Glycosidase-inhibiting pyrrolidine alkaloids from Hyacinthoides non-scripta. Phytochemistry 46 (2): 255-259.)

rat intestinal lactase = biological target: T1, rat intestinal lactase (Rattus norvegicus, UniProt Q02401); assay: Rat intestinal glycosidases: lactase; assay type: biochemical; details: rat intestinal brush border membranes
T1 construct: Enzyme activities were prepared from brush border membranes of rat small intestine; from tissue; host or cells: rat small intestine brush border membranes
T1 sequence (Q02401 868-1928): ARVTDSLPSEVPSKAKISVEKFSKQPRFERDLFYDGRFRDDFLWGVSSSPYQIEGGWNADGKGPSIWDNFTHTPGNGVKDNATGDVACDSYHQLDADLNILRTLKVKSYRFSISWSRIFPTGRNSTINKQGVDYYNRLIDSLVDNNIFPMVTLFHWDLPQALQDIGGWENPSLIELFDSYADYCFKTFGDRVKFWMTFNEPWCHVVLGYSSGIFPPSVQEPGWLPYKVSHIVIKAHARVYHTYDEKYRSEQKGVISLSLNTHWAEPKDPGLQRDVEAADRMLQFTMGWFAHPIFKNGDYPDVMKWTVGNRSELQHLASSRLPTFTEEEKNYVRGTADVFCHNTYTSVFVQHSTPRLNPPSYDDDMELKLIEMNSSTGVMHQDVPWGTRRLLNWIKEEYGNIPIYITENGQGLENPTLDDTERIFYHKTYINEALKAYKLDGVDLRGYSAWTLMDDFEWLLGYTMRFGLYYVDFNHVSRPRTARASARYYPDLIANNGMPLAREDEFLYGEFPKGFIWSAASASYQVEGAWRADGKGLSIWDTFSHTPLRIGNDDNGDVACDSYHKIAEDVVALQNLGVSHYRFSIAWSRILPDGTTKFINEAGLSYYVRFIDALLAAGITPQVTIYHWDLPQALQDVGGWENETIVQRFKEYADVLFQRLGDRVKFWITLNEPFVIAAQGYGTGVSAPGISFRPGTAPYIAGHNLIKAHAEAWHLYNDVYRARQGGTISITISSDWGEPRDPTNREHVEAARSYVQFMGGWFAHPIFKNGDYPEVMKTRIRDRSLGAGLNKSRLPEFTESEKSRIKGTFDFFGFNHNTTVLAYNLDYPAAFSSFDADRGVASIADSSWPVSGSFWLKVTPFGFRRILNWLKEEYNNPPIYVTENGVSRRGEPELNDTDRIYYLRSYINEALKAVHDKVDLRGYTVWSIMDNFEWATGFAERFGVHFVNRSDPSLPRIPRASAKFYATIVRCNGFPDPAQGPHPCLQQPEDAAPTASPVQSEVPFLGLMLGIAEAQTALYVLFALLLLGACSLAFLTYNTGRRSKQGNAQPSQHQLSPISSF
Experimental: Enzyme activities were prepared from brush border membranes of rat small intestine using disaccharides as substrates as described by Yasuda et al., 2002.

α-glucosidases = assay: Inhibition of α-glucosidases (summary statement); assay type: biochemical; details: only just reaching 50% inhibition at nearly mM concentration
Description: The results tabulated below were obtained using commercially available glycosidases and p-nitrophenyl-substrates using standard methods described for example by Watson et al (1997) Phytochemistry 46 255-259. All enzymes and substrates were bought from Sigma. Enzyme and substrate solutions were made using sodium phosphate buffers at the pH optima values. The enzymes used were α-D-glucosidase Saccharomyces cerevisiae, Bacillus stearothermophilus, Oryzae sativa), β-D-glucosidase (Almond), α-D-mannosidase (Jack bean), α-D-galactosidase (Green coffee beans), β-D-galactosidase (Bovine liver), α-L-fucosidase (Bovine kidney), N-acetyl-β-D-glucosaminidase (Bovine kidney, Jack bean, Aspergillus oryzae), Naringinase (Penicillium decumbens) and amyloglucosidase (Aspergillus niger). All enzymes were used with the appropriate p-nitrophenyl substrates (5 mM). Amyloglucosidase activity was measured using amylopectin (0.1%) (Merck) mixed with sodium phosphate buffer, pH 4.5 in a glass bottle, and healed in a boiling water bath for 20 minutes to dissolve with released glucose measured using ‘Trinder’ glucose detection solution (Sigma).

[2] = Uptake of G2 after oral Gymnema water extract, urine monitoring; assay type: in vivo, human; details: one volunteer
Experimental: In a preliminary experiment on one volunteer to determine if G2 was readily absorbed from the gastrointestinal tract, a water extract of Gymnema leaves obtained commercially containing 7 mg of G2 was drunk and urine monitored for G2 over 4 hours (0-2 hours and 2-4 hours). An internal standard of 1 mg of castanospermine was added to the two samples of urine prior to applying to a cation exchange resin (IR120 in the H^+ form). After washing the resin with copious water, the bound material was displaced wing excess 2M NH4^+ solution and dried for GC-MS analysis. The samples were derivatised using Pierce Tri-Sil to produce trimethyl-silyl-derivatives of the imino sugars and imino sugar acids. GC-MS was carried out on a Perkin Elmer TurboMass Gold mass spectrometer, with a quadrupole ion filter system, which was run at 250° C. constantly during analysis. The detector mass range was set to 100 to 650 amu. The temperature of the transfer line (GC to MS) was held at 250° C. The GC column was a […] fused-silica column (Varian ‘Factor Four’ VF-5 ms column, 25 m×0.25 mm i.d., 0.25 μm phase thickness). The carrier gas (helium) flow rate was 1 ml min-1. G2 gives a characteristic mass spectrum as the tms derivative and was well resolved allowing quantification.

ob/ob mice = assay: Oral glucose tolerance test after 7 days dosing in ob/ob mice; assay type: in vivo
Experimental: The study started with 42 male ob/ob mice, 10 weeks of age. The mice were fed a normal chow diet during the whole study. After 1 week of acclimatization, mice were matched on basis of body weight, plasma glucose and insulin (after 4 h-fasting) and divided in 3 groups of 10 animals (t=0 days). For the next 6 days, mice received vehicle (control group 1) or 5 mg/kg/day (group 2) or 50 mg/kg/day (group 3) of the compound of formula (G2) (test compound) around 12.00 h by gavage (5 ml/kg mouse). On the 7th day, mice were fasted at 8.00 h and received the last gavage (vehicle for group 1 or 5 mg/kg/day, test compound for group 2 or 50 mg/kg/day test compound for group 3) at 12.00 h. At 13.00 h the mice subsequently received a glucose bolus (2 g/kg mouse, 5 ml/kg mouse) by gavage as start of the oral glucose tolerance test (OGTT). Measurement of blood glucose and plasma collection was at t=0 (just before gavage of glucose) and at t=5, 15, 30, 45, 60 and 120 min after glucose bolus. After the OGTT, mice were sacrificed with CO2 and additional blood was collected in heparin-coated tubes via heart puncture (>100 μl plasma was obtained) and heparin-plasma samples were analysed.
On day 0 mice were randomized on body weight and 4 h fasted plasma glucose and insulin levels (table 3.1.a). Twelve out of 42 mice were excluded, to create more homogenous groups with respect to body weight, plasma glucose and insulin.

Solubility in water = assay type: physicochemical
ddy mice = assay: Blood glucose levels after maltose loading in ddy mice; assay type: in vivo
Experimental: 7 weeks old ddy mice (weight 30-31 g) were divided into 4 groups (from group 1 to 4). Each group had 5 mouse. All test mouse were fasted for 16 hours for this experiment.
The aim of this experiment was to show if G2 (here coded as BR1) could suppress a hyperglycemia after a meal. Thus, maltose was chosen as the loading sugar as used for Bayer's glucosidase inhibitor Glucobay. Either maltose (2.5 g/kg) or Surose (2.5 g/kg) or starch (1.0 g/kg) can be used but maltose is most popular.
Group 1: Control. Maltose-loading only (without G2 condition). Group 2: oral administration of G2 with maltose (same time). Group 3: intraperitoneal injection of G2 and oral administration of maltose (same time). Group 4: oral administration of G2 30 minutes before maltose-loading. (Glucobay is taken 30 minutes before meals).

iduronidase = iduronidase (Homo sapiens, UniProt P35475); details: Booth et al. (2007) and references therein; cited from earlier work
iduronidase, sequence (P35475 28-653): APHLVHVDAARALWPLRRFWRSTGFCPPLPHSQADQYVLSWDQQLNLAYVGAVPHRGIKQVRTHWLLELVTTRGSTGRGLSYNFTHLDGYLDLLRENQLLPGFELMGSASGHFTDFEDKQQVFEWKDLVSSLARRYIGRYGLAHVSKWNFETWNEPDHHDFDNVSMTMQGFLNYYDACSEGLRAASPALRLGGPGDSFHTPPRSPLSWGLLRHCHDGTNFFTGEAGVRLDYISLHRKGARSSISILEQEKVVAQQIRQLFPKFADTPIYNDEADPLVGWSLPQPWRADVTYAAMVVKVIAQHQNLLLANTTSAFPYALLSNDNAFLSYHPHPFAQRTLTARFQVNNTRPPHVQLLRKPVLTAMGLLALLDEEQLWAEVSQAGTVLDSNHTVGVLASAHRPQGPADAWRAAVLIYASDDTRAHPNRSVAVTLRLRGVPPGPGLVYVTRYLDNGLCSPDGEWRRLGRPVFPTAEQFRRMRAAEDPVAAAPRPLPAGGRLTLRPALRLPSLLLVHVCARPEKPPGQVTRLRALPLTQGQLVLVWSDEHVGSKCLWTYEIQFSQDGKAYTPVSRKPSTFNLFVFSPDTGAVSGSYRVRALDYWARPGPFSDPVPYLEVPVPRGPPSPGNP

[3] = 5 mg/kg/day or 50 mg/kg/day by gavage, compared to control (vehicle) group

Q: For `O=C(O)[C@H]1NC[C@H](O)[C@@H](O)[C@@H]1O` [Compound G2, 2S,3R,4R,5S-trihydroxypiperidine-2-carboxylic acid], which “% inhibition, β-D-mannosidase Cellullomonas fimi” value [1] is on record?
A: NI (NI = no inhibition)

Q: And the IC50 (rat intestinal lactase)?
A: > 1000 µM

Q: What about the “inhibition of α-glucosidases” value (α-glucosidases) of the same compound?
A: very weak inhibitor

Q: What about the “G2 recovered in urine” value ([2]; oral water extract containing 7 mg of G2, within four hours) of the same compound?
A: ~7 mg

Q: And the G2 in urine ([2]; oral water extract of Gymnema leaves containing 7 mg of G2, urine 0-2 hours and 2-4 hours)?
A: detected

Q: What about the “plasma insulin concentrations 120 min after glucose bolus” value (ob/ob mice; 5 mg/kg and 50 mg/kg groups vs control) of the same compound?
A: significantly increased

Q: And the body weight (ob/ob mice; [3])?
A: not significantly changed

Q: And the food intake (ob/ob mice; [3])?
A: not significantly changed

Q: And the “plasma insulin at 15, 30, 45 and 60 min” value (ob/ob mice; after glucose bolus 2 g/kg, 5 and 50 mg/kg/day groups vs control)?
A: No significant changes

Q: And the “plasma insulin levels at 0 min” value (ob/ob mice; just before oral glucose load, 5 and 50 mg/kg/day groups vs control, reduction not significant)?
A: reduced somewhat

Q: And the solubility in water (Solubility in water)?
A: freely soluble

Q: And the “absorption into the blood” value (ddy mice; inferred from p.o. and i.p. curves being almost same)?
A: absorbed into the blood very quickly

Q: And the “blood glucose level (hyperglycemia) after maltose loading” value (ddy mice; p.o. with maltose, i.p. with maltose, or p.o. 30 minutes before maltose (2.5 g/kg))?
A: suppress hyperglycemia

Q: And the inhibition of iduronidase (iduronidase)?
A: weak inhibitor
